# Experiments:
# Assay type in all cases: in vivo
# Abuthilon [1] = experiment: Pre-emergence test/greenhouse; conditions: Table B, after three weeks
# Protocol: (§1) To produce a suitable preparation of active compound, 1 part by weight of active compound is mixed with the stated amount of solvent, the stated amount of emulsifier is added and the concentrate is diluted with water to the desired concentration.
# (§2) Seeds of the test plants are sown in normal soil and, after 24 hours, watered with the preparation of active compound. It is expedient to keep constant the amount of water per unit area. The concentration of the active compound in the preparation is of no importance, only the amount of active compound applied per unit area being decisive. After three weeks, the degree of damage to the plants is rated in % damage in comparison to the development of the untreated control. The figures denote:
# (§3) 0%=no action (like untreated control)
# Amaranthus [2] = experiment: Pre-emergence test/greenhouse; conditions: Table B, after three weeks
# Protocol: as §1, §2, §3
# Chenopodium [3] = experiment: Pre-emergence test/greenhouse; conditions: Table B, after three weeks
# Protocol: as §1, §2, §3
# Maize [4] = experiment: Pre-emergence test/greenhouse; conditions: Table B, after three weeks
# Protocol: as §1, §2, §3
# Matricaria = experiment: Pre-emergence test/greenhouse; conditions: Table B, after three weeks
# Protocol: as §1, §2, §3
# Portulaca = experiment: Pre-emergence test/greenhouse; conditions: Table B, after three weeks
# Protocol: as §1, §2, §3
# Solanum [5] = experiment: Pre-emergence test/greenhouse; conditions: Table B, after three weeks
# Protocol: as §1, §2, §3
# Wheat [6] = experiment: Pre-emergence test/greenhouse; conditions: Table B, after three weeks
# Protocol: as §1, §2, §3
# Abuthilon [7] = experiment: Post-emergence test/greenhouse; conditions: Table C, after three weeks
# Protocol: as §1
# (§4) Test plants which have a height of 5-15 cm are sprayed with the preparation of active compound in such a way as to apply the particular amounts of active compound desired per unit area. After three weeks, the degree of damage to the plants is rated in % damage in comparison to the development of the untreated control.
# (§5) 0%=no action (like intreated control)
# Amaranthus [8] = experiment: Post-emergence test/greenhouse; conditions: Table C, after three weeks
# Protocol: as §1, §4, §5
# Chenopodium [9] = experiment: Post-emergence test/greenhouse; conditions: Table C, after three weeks
# Protocol: as §1, §4, §5
# Maize [10] = experiment: Post-emergence test/greenhouse; conditions: Table C, after three weeks
# Protocol: as §1, §4, §5
# Solanum [11] = experiment: Post-emergence test/greenhouse; conditions: Table C, after three weeks
# Protocol: as §1, §4, §5
# Veronica = experiment: Post-emergence test/greenhouse; conditions: Table C, after three weeks
# Protocol: as §1, §4, §5
# Wheat [12] = experiment: Post-emergence test/greenhouse; conditions: Table C, after three weeks
# Protocol: as §1, §4, §5
structure (smiles),measurement,setting,value
CC(C)Oc1cc(-n2nc3n(c2=O)CCCC3)c(F)cc1C(N)=S [Example 17],"degree of damage, Abuthilon",Abuthilon [1]; 30 g/ha,100%
same,"degree of damage, Amaranthus",Amaranthus [2]; 30 g/ha,100%
same,"degree of damage, Chenopodium",Chenopodium [3]; 30 g/ha,100%
same,"degree of damage, Maize",Maize [4]; 30 g/ha,0%
same,"degree of damage, Matricaria",Matricaria; 30 g/ha,100%
same,"degree of damage, Portulaca",Portulaca; 30 g/ha,100%
same,"degree of damage, Solanum",Solanum [5]; 30 g/ha,100%
same,"degree of damage, Wheat",Wheat [6]; 30 g/ha,0%
same,"degree of damage, Abuthilon",Abuthilon [7]; 8 g/ha,100%
same,"degree of damage, Amaranthus",Amaranthus [8]; 8 g/ha,100%
same,"degree of damage, Chenopodium",Chenopodium [9]; 8 g/ha,95%
same,"degree of damage, Maize",Maize [10]; 8 g/ha,10%
same,"degree of damage, Solanum",Solanum [11]; 8 g/ha,100%
same,"degree of damage, Veronica",Veronica; 8 g/ha,100%
same,"degree of damage, Wheat",Wheat [12]; 8 g/ha,10%
CCS(=O)(=O)Nc1cc(-n2c(=O)cc(C(F)(F)F)n(C)c2=S)c(F)cc1C(N)=S [Example 21],"degree of damage, Abuthilon",Abuthilon [1]; 60 g/ha,100%
same,"degree of damage, Amaranthus",Amaranthus [2]; 60 g/ha,100%
same,"degree of damage, Chenopodium",Chenopodium [3]; 60 g/ha,100%
same,"degree of damage, Maize",Maize [4]; 60 g/ha,0%
same,"degree of damage, Matricaria",Matricaria; 60 g/ha,100%
same,"degree of damage, Portulaca",Portulaca; 60 g/ha,100%
same,"degree of damage, Solanum",Solanum [5]; 60 g/ha,100%
same,"degree of damage, Wheat",Wheat [6]; 60 g/ha,0%
same,"degree of damage, Abuthilon",Abuthilon [7]; 4 g/ha,90%
same,"degree of damage, Amaranthus",Amaranthus [8]; 4 g/ha,100%
same,"degree of damage, Chenopodium",Chenopodium [9]; 4 g/ha,70%
same,"degree of damage, Maize",Maize [10]; 4 g/ha,60%
same,"degree of damage, Solanum",Solanum [11]; 4 g/ha,100%
same,"degree of damage, Veronica",Veronica; 4 g/ha,100%
same,"degree of damage, Wheat",Wheat [12]; 4 g/ha,5%
CCS(=O)(=O)Nc1cc(N2C(=O)C(C)=C(C)C2=O)c(F)cc1C(N)=S [Example 22],"degree of damage, Abuthilon",Abuthilon [1]; 250 g/ha,100%
same,"degree of damage, Amaranthus",Amaranthus [2]; 250 g/ha,100%
same,"degree of damage, Chenopodium",Chenopodium [3]; 250 g/ha,100%
same,"degree of damage, Maize",Maize [4]; 250 g/ha,20%
same,"degree of damage, Matricaria",Matricaria; 250 g/ha,100%
same,"degree of damage, Portulaca",Portulaca; 250 g/ha,95%
same,"degree of damage, Solanum",Solanum [5]; 250 g/ha,100%
same,"degree of damage, Wheat",Wheat [6]; 250 g/ha,0%
same,"degree of damage, Abuthilon",Abuthilon [7]; 30 g/ha,100%
same,"degree of damage, Amaranthus",Amaranthus [8]; 30 g/ha,100%
same,"degree of damage, Chenopodium",Chenopodium [9]; 30 g/ha,40%
same,"degree of damage, Maize",Maize [10]; 30 g/ha,0%
same,"degree of damage, Solanum",Solanum [11]; 30 g/ha,100%
same,"degree of damage, Veronica",Veronica; 30 g/ha,20%
same,"degree of damage, Wheat",Wheat [12]; 30 g/ha,15%
CCS(=O)(=O)Nc1cc(N2C(=O)C3=C(CCCC3)C2=O)c(F)cc1C(N)=S [Example 23],"degree of damage, Abuthilon",Abuthilon [1]; 60 g/ha,95%
same,"degree of damage, Amaranthus",Amaranthus [2]; 60 g/ha,70%
same,"degree of damage, Chenopodium",Chenopodium [3]; 60 g/ha,95%
same,"degree of damage, Maize",Maize [4]; 60 g/ha,0%
same,"degree of damage, Matricaria",Matricaria; 60 g/ha,100%
same,"degree of damage, Portulaca",Portulaca; 60 g/ha,95%
same,"degree of damage, Solanum",Solanum [5]; 60 g/ha,70%
same,"degree of damage, Wheat",Wheat [6]; 60 g/ha,0%
same,"degree of damage, Abuthilon",Abuthilon [7]; 30 g/ha,95%
same,"degree of damage, Chenopodium",Chenopodium [9]; 30 g/ha,90%
same,"degree of damage, Maize",Maize [10]; 30 g/ha,50%
same,"degree of damage, Solanum",Solanum [11]; 30 g/ha,100%
same,"degree of damage, Veronica",Veronica; 30 g/ha,100%
same,"degree of damage, Wheat",Wheat [12]; 30 g/ha,0%
Cn1c(C(F)(F)F)cc(=O)n(-c2cc(NS(C)(=O)=O)c(C(N)=S)cc2F)c1=S [Example 26],"degree of damage, Abuthilon",Abuthilon [1]; 60 g/ha,100%
same,"degree of damage, Amaranthus",Amaranthus [2]; 60 g/ha,80%
same,"degree of damage, Chenopodium",Chenopodium [3]; 60 g/ha,100%
same,"degree of damage, Maize",Maize [4]; 60 g/ha,0%
same,"degree of damage, Matricaria",Matricaria; 60 g/ha,100%
same,"degree of damage, Portulaca",Portulaca; 60 g/ha,100%
same,"degree of damage, Solanum",Solanum [5]; 60 g/ha,90%
same,"degree of damage, Wheat",Wheat [6]; 60 g/ha,0%
same,"degree of damage, Abuthilon",Abuthilon [7]; 15 g/ha,50%
same,"degree of damage, Amaranthus",Amaranthus [8]; 15 g/ha,90%
same,"degree of damage, Chenopodium",Chenopodium [9]; 15 g/ha,50%
same,"degree of damage, Maize",Maize [10]; 15 g/ha,30%
same,"degree of damage, Solanum",Solanum [11]; 15 g/ha,50%
same,"degree of damage, Veronica",Veronica; 15 g/ha,100%
same,"degree of damage, Wheat",Wheat [12]; 15 g/ha,0%
C#CC(C)Oc1cc(-n2nc(C(F)(F)F)n(C)c2=O)c(F)cc1C(N)=S (stereo not drawn) [Example 32],"degree of damage, Amaranthus",Amaranthus [2]; 30 g/ha,100%
same,"degree of damage, Chenopodium",Chenopodium [3]; 30 g/ha,100%
same,"degree of damage, Maize",Maize [4]; 30 g/ha,0%
same,"degree of damage, Matricaria",Matricaria; 30 g/ha,100%
same,"degree of damage, Portulaca",Portulaca; 30 g/ha,95%
same,"degree of damage, Solanum",Solanum [5]; 30 g/ha,100%
same,"degree of damage, Wheat",Wheat [6]; 30 g/ha,10%
same,"degree of damage, Abuthilon",Abuthilon [7]; 4 g/ha,100%
same,"degree of damage, Amaranthus",Amaranthus [8]; 4 g/ha,100%
same,"degree of damage, Chenopodium",Chenopodium [9]; 4 g/ha,95%
same,"degree of damage, Maize",Maize [10]; 4 g/ha,30%
same,"degree of damage, Solanum",Solanum [11]; 4 g/ha,100%
same,"degree of damage, Veronica",Veronica; 4 g/ha,100%
same,"degree of damage, Wheat",Wheat [12]; 4 g/ha,15%
COCCOCCOc1cc(-n2nc(C)n(C(F)F)c2=O)c(F)cc1C(N)=S [Example 51],"degree of damage, Abuthilon",Abuthilon [1]; 30 g/ha,100%
same,"degree of damage, Chenopodium",Chenopodium [3]; 30 g/ha,100%
same,"degree of damage, Maize",Maize [4]; 30 g/ha,20%
same,"degree of damage, Matricaria",Matricaria; 30 g/ha,95%
same,"degree of damage, Portulaca",Portulaca; 30 g/ha,100%
same,"degree of damage, Solanum",Solanum [5]; 30 g/ha,100%
same,"degree of damage, Wheat",Wheat [6]; 30 g/ha,0%
same,"degree of damage, Abuthilon",Abuthilon [7]; 15 g/ha,100%
same,"degree of damage, Amaranthus",Amaranthus [8]; 15 g/ha,100%
same,"degree of damage, Chenopodium",Chenopodium [9]; 15 g/ha,70%
same,"degree of damage, Maize",Maize [10]; 15 g/ha,60%
same,"degree of damage, Solanum",Solanum [11]; 15 g/ha,100%
same,"degree of damage, Veronica",Veronica; 15 g/ha,100%
same,"degree of damage, Wheat",Wheat [12]; 15 g/ha,15%

# From US6451736B1, “Substituted aromatic thiocarboxylic acid amides and their use as herbicides” (Bayer Aktiengesellschaft, priority 1994, dated 2002)
